Data: patent US12281057B2 (VERTEX PHARMACEUTICALS INCORPORATED, priority 2017, dated 2025)
Like-named read-outs stand apart in the source and are kept apart here.

Target: truncated form of human NaV 1.8 with full channel activity (Homo sapiens, UniProt Q9Y5Y9)
Test: E-VIPR Assay Method A for detecting and measuring Nav inhibition (HEK cells, membrane potential FRET dyes, electrical stimulation)
Format: cell-based
Details: HEK cells expressing human NaV 1.8, HS (human serum) in compound loading buffer, 11 point dose response, top dose 3 μM
Procedure, shortened: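 Read-out: FRET membrane-potential dye ratio (460/580 nm) before and during E-VIPR field stimulation at 10 Hz for 10 s, expressed as % activity between DMSO and positive controls. Cells: HEK with truncated human NaV1.8; compound preincubated 30 min at room temp, final DMSO 0.625%.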

[1] = Table 20A, read-out: Nav 1.8 MedChem Optical Assay EVIPR Assay Method A HS IC50

Sequence of truncated form of human NaV 1.8 with full channel activity (Q9Y5Y9 126-1722 limits assumed): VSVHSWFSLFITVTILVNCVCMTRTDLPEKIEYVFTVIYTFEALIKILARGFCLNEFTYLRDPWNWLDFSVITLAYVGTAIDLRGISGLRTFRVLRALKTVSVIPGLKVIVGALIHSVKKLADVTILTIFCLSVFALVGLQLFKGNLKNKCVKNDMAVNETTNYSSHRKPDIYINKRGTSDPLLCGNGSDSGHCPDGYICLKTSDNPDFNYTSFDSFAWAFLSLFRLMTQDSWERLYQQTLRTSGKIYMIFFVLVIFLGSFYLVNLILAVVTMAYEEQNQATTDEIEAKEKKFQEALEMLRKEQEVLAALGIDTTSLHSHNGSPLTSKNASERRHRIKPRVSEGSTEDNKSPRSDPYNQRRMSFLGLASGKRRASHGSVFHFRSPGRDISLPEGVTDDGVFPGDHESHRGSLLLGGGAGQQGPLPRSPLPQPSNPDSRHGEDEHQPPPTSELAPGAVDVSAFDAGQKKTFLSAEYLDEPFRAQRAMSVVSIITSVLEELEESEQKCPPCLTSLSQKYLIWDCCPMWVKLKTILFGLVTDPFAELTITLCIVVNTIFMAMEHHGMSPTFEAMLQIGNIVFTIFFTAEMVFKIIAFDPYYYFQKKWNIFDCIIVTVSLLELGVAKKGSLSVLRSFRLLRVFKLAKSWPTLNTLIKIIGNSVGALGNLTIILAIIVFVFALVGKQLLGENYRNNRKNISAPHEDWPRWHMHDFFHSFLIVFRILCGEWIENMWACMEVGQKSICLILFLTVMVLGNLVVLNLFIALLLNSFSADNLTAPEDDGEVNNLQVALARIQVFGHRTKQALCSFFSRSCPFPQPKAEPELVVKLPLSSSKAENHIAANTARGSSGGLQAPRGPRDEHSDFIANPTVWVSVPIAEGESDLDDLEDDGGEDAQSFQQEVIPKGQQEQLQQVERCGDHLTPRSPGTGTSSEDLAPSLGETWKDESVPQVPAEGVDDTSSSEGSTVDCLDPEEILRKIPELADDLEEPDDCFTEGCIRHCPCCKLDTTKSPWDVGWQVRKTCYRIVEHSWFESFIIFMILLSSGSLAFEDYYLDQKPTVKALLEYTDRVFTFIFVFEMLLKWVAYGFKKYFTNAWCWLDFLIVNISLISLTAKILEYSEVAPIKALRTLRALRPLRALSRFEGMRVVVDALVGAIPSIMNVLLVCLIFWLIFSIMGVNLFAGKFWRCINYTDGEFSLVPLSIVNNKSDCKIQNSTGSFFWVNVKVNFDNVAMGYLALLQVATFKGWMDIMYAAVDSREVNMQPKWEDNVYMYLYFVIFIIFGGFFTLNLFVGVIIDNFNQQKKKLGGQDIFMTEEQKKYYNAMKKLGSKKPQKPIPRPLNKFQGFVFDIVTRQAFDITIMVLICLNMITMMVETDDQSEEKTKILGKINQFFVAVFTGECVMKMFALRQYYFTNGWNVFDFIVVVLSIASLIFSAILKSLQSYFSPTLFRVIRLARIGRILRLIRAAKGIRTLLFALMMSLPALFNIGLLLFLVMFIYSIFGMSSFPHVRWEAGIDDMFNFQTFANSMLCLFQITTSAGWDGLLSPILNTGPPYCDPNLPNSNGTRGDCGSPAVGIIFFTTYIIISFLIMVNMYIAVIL

SMILES	IC50 [1] [µM]	IC50 (Table 20, read-out: Nav 1.8 MedChem Optical Assay EVIPR Assay Method A HS IC50) [µM]
COc1cc(OC(F)(F)F)ccc1Oc1ccc(C(F)(F)F)c(F)c1C(=O)Nc1cc(C(N)=O)ccn1 [Compound 87, 2-[[2-fluoro-6-[2-methoxy-4-(trifluoromethoxy)phenoxy]-3-(trifluoromethyl)benzoyl]amino]pyridine-4-carboxamide]	0.15	
COc1cc(OC(F)(F)F)ccc1Oc1cc(C(F)(F)F)ncc1C(=O)Nc1cccc(C(N)=O)c1 [Compound 29, N-(3-Carbamoylphenyl)-4-[2-methoxy-4-(trifluoromethoxy)phenoxy]-6-(trifluoromethyl)pyridine-3-carboxamide]	0.112	
NC(=O)c1cc(NC(=O)c2cnc(C3CC3)cc2Oc2ccc(OC(F)(F)F)c(F)c2)ccc1F [Compound 42, N-(3-Carbamoyl-4-fluoro-phenyl)-6-cyclopropyl-4-[3-fluoro-4-(trifluoromethoxy)phenoxy]pyridine-3-carboxamide]	0.4	
NC(=O)c1cc(NC(=O)c2c(Oc3ccc(OC(F)(F)F)cc3F)ccc(C(F)(F)F)c2F)ccc1F [Compound 21, N-(3-carbamoyl-4-fluoro-phenyl)-2-fluoro-6-[2-fluoro-4-(trifluoromethoxy)phenoxy]-3-(trifluoromethyl)benzamide]		0.01
COc1cc(OC(F)(F)F)ccc1Oc1cc(C(F)(F)F)ncc1C(=O)Nc1ccc(OC)c(C(N)=O)c1 [Compound 239, N-(3-carbamoyl-4-methoxy-phenyl)-4-[2-methoxy-4-(trifluoromethoxy)phenoxy]-6-(trifluoromethyl)pyridine-3-carboxamide]	2.7	
COc1cc(OC(F)(F)F)ccc1Oc1cnc(C2CC2)c(F)c1C(=O)Nc1ccc(F)c(C(N)=O)c1 [Compound 46, N-(3-Carbamoyl-4-fluoro-phenyl)-2-cyclopropyl-3-fluoro-5-[2-methoxy-4-(trifluoromethoxy)phenoxy]pyridine-4-carboxamide]	1.2	

Further lines, results first:

IC50 [1] [µM]	IC50 (Table 20, read-out: Nav 1.8 MedChem Optical Assay EVIPR Assay Method A HS IC50) [µM]	SMILES
0.052		[2H]C([2H])([2H])Oc1cc(OC(F)(F)F)ccc1Oc1cc(OC(F)(F)F)cc(F)c1C(=O)Nc1ccc(C(N)=O)nc1 [Compound 173, 5-[[2-Fluoro-6-[2-(trideuteriomethoxy)-4-(trifluoromethoxy)phenoxy]-4-(trifluoromethoxy)benzoyl]amino]pyridine-2-carboxamide]
0.008		COc1cc(Oc2ccc(OC(F)(F)F)cc2)c(C(=O)Nc2ccc(F)c(C(N)=O)c2)c(F)c1C(F)(F)F [Compound 216, N-(3-Carbamoyl-4-fluoro-phenyl)-2-fluoro-4-methoxy-6-[4-(trifluoromethoxy)phenoxy]-3-(trifluoromethyl)benzamide]
0.075		NC(=O)c1cc(NC(=O)c2c(Cl)cc(Cl)cc2Oc2ccc(OC(F)(F)F)cc2)ccn1 [Compound 180, 4-[[2,4-Dichloro-6-[4-(trifluoromethoxy)phenoxy]benzoyl]amino]pyridine-2-carboxamide]
0.032		COc1cc(OC(F)(F)F)ccc1Oc1ccc(C(F)(F)F)c(F)c1C(=O)Nc1cc(C)nc(C(N)=O)c1 [Compound 86, 4-[[2-fluoro-6-[2-methoxy-4-(trifluoromethoxy)phenoxy]-3-(trifluoromethyl)benzoyl]amino]-6-methyl-pyridine-2-carboxamide]
0.044		NC(=O)c1cccc(NC(=O)c2c(Oc3ccc(OC(F)(F)F)cc3F)ccc(C(F)(F)F)c2F)c1 [Compound 89, N-(3-carbamoylphenyl)-2-fluoro-6-[2-fluoro-4-(trifluoromethoxy)phenoxy]-3-(trifluoromethyl)benzamide]
0.008		[2H]C([2H])([2H])Oc1c(Oc2cc(C(F)(F)F)cc(F)c2C(=O)Nc2ccnc(C(N)=O)c2)ccc(OC(F)(F)F)c1F [Compound 223, 4-[[2-Fluoro-6-[3-fluoro-2-(trideuteriomethoxy)-4-(trifluoromethoxy)phenoxy]-4-(trifluoromethyl)benzoyl]amino]pyridine-2-carboxamide]
